For 6 compounds, IC50 results are on record in ChEMBL document CHEMBL1146284, “Antitumor activity of the marine natural product dibromophakellstatin in vitro” (Bioorg Med Chem Lett, 2007).

Holding throughout (assay type): functional, cell-based
One assay has as its system SF-268. Briefly: Antiproliferative activity against human SF268 cells.
A short description of assay [1]: Antiproliferative activity against human OVXF 899L cells.
Assay [2] is described as follows: Antiproliferative activity against human CNXF 498NL cells.
A short description of assay [3]: Antiproliferative activity against human LXF 529L cells.
The nature of assay [4]: Antiproliferative activity against human MEXF 394NL cells.
For the next assay, the system named is NCI-H460. Put plainly: Antiproliferative activity against human H460 cells.
Assay [5] in a line: Antiproliferative activity against human RXF 944NL cells.
Assay [6] can be described thus: Antiproliferative activity against human UXF 1138L cells.
A short description of assay [7]: Antiproliferative activity against human RXF 1781L cells.
The nature of assay [8]: Antiproliferative activity against human GXF 251L cells.
The nature of assay [9]: Antiproliferative activity against human LXF 1121L cells.
The nature of assay [10]: Antiproliferative activity against human BXF 1218L cells.
A short description of assay [11]: Antiproliferative activity against human HNXF 536L cells.
The test system of the next assay is HT-29. Briefly: Antiproliferative activity against human HT29 cells.
Assay [12] is described as follows: Antiproliferative activity against human OVXF 1619L cells.
In the next assay the test system is T-24. Briefly: Antiproliferative activity against human T24 cells.
A short description of assay [13]: Antiproliferative activity against human MEXF 514NL cells.
The next assay concerns MCF7. Put plainly: Antiproliferative activity against human MCF7 cells.
Assay [14] can be described thus: Antiproliferative activity against human PC3M cells. The settings on record: PC-3M.
In a further assay the test system is OVCAR-3. Briefly: Antiproliferative activity against human OVCAR-3 cells.
The nature of assay [15]: Antiproliferative activity against human PXF 1752L cells.
Assay [16] is described as follows: Antiproliferative activity against human MEXF 462NL cells.
The nature of assay [17]: Antiproliferative activity against human MAXF 401NL cells.
The test system of the next assay is CWR22R. Put plainly: Antiproliferative activity against human 22RV1 cells.
Assay [18] in a line: Antiproliferative activity against human RXF 393NL cells.
A short description of assay [19]: Antiproliferative activity against human LXF 289L cells.
Assay [20] is described as follows: Antiproliferative activity against human RXF 486NL cells […].
A short description of assay [21]: Antiproliferative activity against human MEXF 276L cells. The note with it: MEXF276L.
Another assay deals with PANC-1. Briefly: Antiproliferative activity against human PANC1 cells.
Assay [22] is described as follows: Antiproliferative activity against human LXF 526L cells.
Assay [23] in a line: Antiproliferative activity against human LXF 629L cells.
The next assay has as its system LNCaP. Put plainly: Antiproliferative activity against human LNCAP cells.
Assay [24] can be described thus: Antiproliferative activity against human MEXF 520L cells.
Assay [25] is described as follows: Antiproliferative activity against human PAXF 1675L cells.
The subject of a further assay is DU-145. Put plainly: Antiproliferative activity against human DU145 cells.
A further assay has as its system HCT-116. Put plainly: Antiproliferative activity against human HCT116 cells.

One may read the IC50 as the point on the concentration scale where inhibition reaches its midpoint. High values mean a need for much substance, low ones inhibition by little substance. Regarding `O=C1N[C@H]2n3c(cc(Br)c3Br)C(=O)N3CCC[C@]23N1`, the IC50 (in the assay on SF-268 (sf-268); in [1] (ovxf 899l); in [2] (cnxf 498nl); in [3] (lxf 529l); in assay [4] (mexf 394nl)) was more than 10 µM in each case.
As for `O=C1N[C@H]2n3c(cc(Br)c3Br)C(=O)N3CCC[C@]23N1` [DIBROMOPHAKELLSTATIN], the IC50 in the assay on SF-268 (sf-268) came out at 0.55 µM; in [1] (ovxf 899l) it was 0.05 µM; in [2] (cnxf 498nl), 0.72 µM; in assay [3] (lxf 529l), 1.62 µM; in assay [4] (mexf 394nl) it was 1.35 µM.
In the case of `O=C1NC2n3c(cc(Br)c3Br)C(=O)N3CCCC23N1` (racemic), the IC50 was more than 10 µM in the assay on NCI-H460; more than 10 µM in assay [5]; 1.21 µM in [6]; more than 10 µM in [7]; more than 10 µM in assay [8]; more than 10 µM in [9]. Moreover, the IC50 in assay [10] was more than 10 µM; in [11], more than 10 µM; in the assay with HT-29 it was more than 10 µM; in the assay with SF-268 (Homo sapiens, SF-268) it was 2.28 µM; in assay [12] it was 2.23 µM; with T-24, more than 10 µM. In addition, the IC50 in [13] is 4.41 µM; in assay [1] (Homo sapiens, OVXF 899L), 0.6 µM; in the assay on MCF7, more than 10 µM; in [2] (Homo sapiens, CNXF 498NL), 0.93 µM; in assay [14], 2.42 µM; in the assay with OVCAR-3, more than 10 µM. Besides, the 50% inhibitory concentration (IC50) was more than 10 µM in assay [15]; 0.96 µM in [3] (Homo sapiens, LXF 529L); more than 10 µM in assay [16]; more than 10 µM in assay [17]; more than 10 µM in the assay on CWR22R; more than 10 µM in assay [18]. The IC50 is more than 10 µM in [19]; 1.37 µM in [4] (Homo sapiens, MEXF 394NL); more than 10 µM in [20]; more than 10 µM in assay [21]; 4.06 µM in the assay with PANC-1; more than 10 µM in [22]. Also, the IC50 (in assay [23]; with LNCaP; in assay [24]; in [25]; in the assay on DU-145; in the assay with HCT-116) was more than 10 µM in each case.
Consider `CCOC(=O)N1C(=O)N(OS(=O)(=O)c2ccc(C)cc2)C23CCCN2C(=O)c2cc(Br)c(Br)n2C13` (racemic), for which the IC50 is more than 10 µM in the assay on NCI-H460; 6.3 µM in assay [5]; 8.96 µM in assay [6]; more than 10 µM in [7]; more than 10 µM in assay [8]; more than 10 µM in assay [9]. Besides, the IC50 in assay [10] was 7.42 µM; in assay [11], 7.24 µM; in the assay with HT-29, more than 10 µM; with SF-268 (Homo sapiens, SF-268), 6.45 µM; in assay [12], 4.83 µM; with T-24 it was 9.98 µM. Also, the IC50 in [13] was more than 10 µM; in assay [1] (Homo sapiens, OVXF 899L) it was 8.89 µM; in the assay on MCF7 it was more than 10 µM; in assay [2] (Homo sapiens, CNXF 498NL), more than 10 µM; in assay [14], 8.6 µM; in the assay on OVCAR-3 it was more than 10 µM. Further, the half-inhibitory concentration (IC50) in assay [15] is more than 10 µM; in [3] (Homo sapiens, LXF 529L) it was more than 10 µM; in assay [16], more than 10 µM; in assay [17], 8.16 µM; in the assay on CWR22R it was more than 5.92 µM; in [18], more than 10 µM. The IC50 in assay [19] is more than 10 µM; in assay [4] (Homo sapiens, MEXF 394NL), 4.02 µM; in [20] it was more than 10 µM; in assay [21] it was 9.44 µM; in the assay on PANC-1, 5 µM; in assay [22], 7.96 µM. Further, the IC50 was 6.52 µM in [23]; more than 10 µM with LNCaP; more than 10 µM in assay [24]; more than 10 µM in assay [25]; more than 10 µM with DU-145; more than 10 µM in the assay with HCT-116.
Turning to `O=C1c2cc(Br)c(Br)n2C2C(Cl)(Cl)C23CCCN13` (racemic), the IC50 in the assay on SF-268 (Homo sapiens, SF-268) is 3.91 µM; in assay [1] (Homo sapiens, OVXF 899L), 5.37 µM; in [2] (Homo sapiens, CNXF 498NL), 5.84 µM; in assay [3] (Homo sapiens, LXF 529L), 9.84 µM; in [4] (Homo sapiens, MEXF 394NL), 7.87 µM.
In the case of `CN1C(=O)c2cc(Br)c(Br)n2C2C1C2(Cl)Cl` (racemic), the IC50 in the assay on SF-268 (Homo sapiens, SF-268) was more than 10 µM; in [1] (Homo sapiens, OVXF 899L) it was more than 10 µM; in assay [2] (Homo sapiens, CNXF 498NL), more than 10 µM; in assay [3] (Homo sapiens, LXF 529L) it was more than 10 µM; in [4] (Homo sapiens, MEXF 394NL), 1.35 µM.
